Tests used:
Assay type in all cases: in vivo
[1] = system: PAPRH=Papaver rhoeas L. (common poppy); assay: Postemergence field trial, Banares, Spain
Experimental: (§1) Field trials were established in Spain (Banares and Granon) and Germany (Bielefeld) to evaluate the efficacy of Compound 5, Compound 6, and Compound 7. Trials were designed as randomized complete blocks with three to four replicates. Trials were established in winter wheat with natural weed population with plot sizes of 2-2.5 meters (m) by 6-8 m (width×length). The crops were grown using normal cultural practices for fertilization, seeding, and maintenance to ensure good growth of the crop. All herbicide treatments were applied post-emergence with applications made to the crops at the BBCH 21 to 23 growth stage. Herbicides were applied with backpack or bicycle sprayers using air as a propellant. The sprayers utilized flat fan air-induction spray nozzles calibrated to deliver a uniform spray pattern that provided thorough coverage of the foliage using a 200 L/ha spray volume. All treatments were applied with methylated seed oil (MSO) at 1.25% v/v. Phytotoxicity to the weeds was assessed visually at several intervals after application as percent overall control, compared to an untreated control plot. In general, three to four replicates were assessed for each treatment. All treatment results are an average of three or four replicates. Compound 5, Compound 6, and Compound 7 were applied as emulsifiable concentrate (EC) formulations at 100 g ae/L EC, respectively.

[2] = system: FUMOF=Fumaria officinalis (common fumitory); assay: Postemergence field trial, Banares, Spain
Experimental: as §1

[3] = system: VERHE=Veronica hederifolia (ivyleaved speedwell); assay: Postemergence field trial, Banares, Spain
Experimental: as §1

[4] = system: SINAR=Sinapis arvensis L. (wild mustard); assay: Postemergence field trial, Granon, Spain (Table 7)
Experimental: as §1

[5] = system: PAPRH=Papaver rhoeas L. (common poppy); assay: Postemergence field trial, Granon, Spain (Table 7)
Experimental: as §1

[6] = system: CENCY=Centaurea cyanus (cornflower); assay: Postemergence field trial, Bielefed, Germany
Experimental: as §1

[7] = system: PAPRH=Papaver rhoeas L. (common poppy); assay: Postemergence field trial, Bielefed, Germany
Experimental: as §1

[8] = system: VERSS=Veronica spp (speedwell); assay: Postemergent herbicidal activity in the greenhouse; settings: 21-28 DAAA
Experimental: (§2) Seeds of the desired test plant species were planted in Sun Gro MetroMix® 306 planting mixture, which typically has a pH of 6.0 to 6.8 and an organic matter content of about 30 percent, in plastic pots with a surface area of 103.2 square centimeters (cm^2). When required to ensure good germination and healthy plants, a fungicide treatment and/or other chemical or physical treatment was applied. The plants were grown for 7-36 days (d) in a greenhouse with an approximate 14 hour (h) photoperiod which was maintained at about 18° C. during the day and 17° C. during the night. Nutrients and water were added on a regular basis and supplemental lighting was provided with overhead metal halide 1000-Watt lamps as necessary. The plants were employed for testing when they reached the second or third true leaf stage.
(§3) An aliquot of formulated Compound 5 (100 grams acid equivalent per liter (g ae/L); emusifiable concentrate (EC)), Compound 6 (100 g ae/L; EC) or Compound 7 (100 g ae/L; EC) was placed in a 25 mL glass vial and diluted in a volume of 1.25% (volume per volume (v/v)) aqueous Actirob B esterified rapeseed oil to obtain a stock solution. The concentrated stock solutions were diluted with an aqueous mixture of 1.25% v/v of aqueous Actirob B esterified rapeseed oil to provide the appropriate application rates. Compound requirements are based upon a 12 mL application volume at a rate of 187 liters per hectare (L/ha). Formulated compounds were applied to the plant material with an overhead Mandel track sprayer equipped with 8002E nozzles calibrated to deliver 187 L/ha over an application area of 0.503 square meters (m^2) at a spray height of 18 inches ([…]) above average plant canopy. Control plants were sprayed in the same manner with the solvent blank.
(§4) The treated plants and control plants were placed in a greenhouse as described above and watered by subirrigation to prevent washoff of the test compounds. After 20-22 d, the condition of the test plants as compared with that of the control plants was determined visually and scored on a scale of 0 to 100 percent where 0 corresponds to no injury and 100 corresponds to complete kill. […]
(§5) The values reported are means.

[9] = system: CIRAR=Cirsium arvense (L.) Scop. (Canada thistle); assay: Postemergent herbicidal activity in the greenhouse; settings: 21-28 DAAA
Experimental: as §2, §3, §4, §5

[10] = system: MATCH=Matricaria recutita L. (wild chamomile); assay: Postemergent herbicidal activity in the greenhouse; settings: 21-28 DAAA
Experimental: as §2, §3, §4, §5

[11] = system: SINAR=Sinapis arvensis L. (wild mustard); assay: Postemergent herbicidal activity in the greenhouse; settings: 21-28 DAAA
Experimental: as §2, §3, §4, §5

[12] = system: Res-PAPRH=Papaver rhoeas L. (common poppy) resistant to tribenuron and thifensulfuron (ALS) and 2,4-D; assay: Postemergent herbicidal activity in the greenhouse; settings: 21-28 DAAA
Experimental: as §2, §3, §4, §5

[13] = system: KCHSC=Kochia scoparia (L.) Schrad. (Kochia); assay: Postemergent herbicidal activity in the greenhouse; settings: 21-28 DAAA
Experimental: as §2, §3, §4, §5

[14] = system: POLCO=Polygonum convolvulus L. (wild buckwheat); assay: Postemergent herbicidal activity in the greenhouse; settings: 21-28 DAAA
Experimental: as §2, §3, §4, §5

[15] = system: ANTAR=Anthemis arvensis (field chamomile); assay: Postemergent herbicidal activity in the greenhouse; settings: 21-28 DAAA
Experimental: as §2, §3, §4, §5

[16] = system: PAPRH=Papaver rhoeas L. (common poppy); assay: Postemergent herbicidal activity in the greenhouse; settings: 21-28 DAAA
Experimental: as §2, §3, §4, §5

[17] = system: MATIN=Matricaria inodora (scentless mayweed); assay: Postemergent herbicidal activity in the greenhouse; settings: 21-28 DAAA
Experimental: as §2, §3, §4, §5

[18] = system: CHEAL=Chenopodium album L. (common lambsquarters); assay: Postemergent herbicidal activity in the greenhouse; settings: 21-28 DAAA
Experimental: as §2, §3, §4, §5

`Nc1c(F)c(-c2ccc3cc[nH]c3c2F)nc(C(=O)OCc2ccccc2)c1Cl` [Compound 7, benzyl 4-amino-3-chloro-5-fluoro-6-(7-fluoro-1H-indol-6-yl)picolinate, reference compound] was tested, and the “Percent (%) Visual Control PAPRH 66DAAA” value ([1]; 5 g ae/ha) was 53.3%, the “Percent (%) Visual Control PAPRH 66DAAA” value ([1]; 10 g ae/ha) was 62.7% and the “Percent (%) Visual Control PAPRH 66DAAA” value ([1]; 20 g ae/ha) was 75%. For the same molecule, the “Percent (%) Visual Control FUMOF 83DAAA” value ([2]; 5 g ae/ha) was 26.7%, the “Percent (%) Visual Control FUMOF 83DAAA” value ([2]; 10 g ae/ha) was 45% and the “Percent (%) Visual Control FUMOF 83DAAA” value ([2]; 20 g ae/ha) was 58.3%. For the same molecule, the “Percent (%) Visual Control VERHE 66DAAA” value ([3]; 5 g ae/ha) was 50%, the “Percent (%) Visual Control VERHE 66DAAA” value ([3]; 10 g ae/ha) was 56% and the “Percent (%) Visual Control VERHE 66DAAA” value ([3]; 20 g ae/ha) was 70%. The “Percent (%) Visual Control SINAR 48DAAA” value ([4]; 5 g ae/ha) was 73.3%, the “Percent (%) Visual Control SINAR 48DAAA” value ([4]; 10 g ae/ha) was 80.7% and the “Percent (%) Visual Control SINAR 48DAAA” value ([4]; 20 g ae/ha) was 89.3%. For the same molecule, the “Percent (%) Visual Control PAPRH 68DAAA” value ([5]; 5 g ae/ha) was 45%, the “Percent (%) Visual Control PAPRH 68DAAA” value ([5]; 10 g ae/ha) was 60% and the “Percent (%) Visual Control PAPRH 68DAAA” value ([5]; 20 g ae/ha) was 74.3%. The “Percent (%) Visual Control CENCY 85DAAA” value ([6]; 5 g ae/ha) was 32.5%, the “Percent (%) Visual Control CENCY 85DAAA” value ([6]; 10 g ae/ha) was 53.8% and the “Percent (%) Visual Control CENCY 85DAAA” value ([6]; 20 g ae/ha) was 62.5%. For the same molecule, the “Percent (%) Visual Control PAPRH 85DAAA” value ([7]; 5 g ae/ha) was 66.3%, the “Percent (%) Visual Control PAPRH 85DAAA” value ([7]; 10 g ae/ha) was 78.8% and the “Percent (%) Visual Control PAPRH 85DAAA” value ([7]; 20 g ae/ha) was 80%. The “Percent (%) Visual Control VERSS” value ([8]; 10 g ae/ha) was 72.5%, the “Percent (%) Visual Control VERSS” value ([8]; 20 g ae/ha) was 67.5% and the “Percent (%) Visual Control CIRAR” value ([9]; 10 g ae/ha) was 30%. The “Percent (%) Visual Control CIRAR” value ([9]; 20 g ae/ha) was 46.7%, the “Percent (%) Visual Control MATCH” value ([10]; 10 g ae/ha) was 57% and the “Percent (%) Visual Control MATCH” value ([10]; 20 g ae/ha) was 50.5%. The “Percent (%) Visual Control SINAR” value ([11]; 10 g ae/ha) was 90%, the “Percent (%) Visual Control SINAR” value ([11]; 20 g ae/ha) was 94% and the “Percent (%) Visual Control Res-PAPRH” value ([12]; 10 g ae/ha) was 92.5%. For the same molecule, the “Percent (%) Visual Control Res-PAPRH” value ([12]; 20 g ae/ha) was 92.5%, the “Percent (%) Visual Control KCHSC” value ([13]; 10 g ae/ha) was 65% and the “Percent (%) Visual Control KCHSC” value ([13]; 20 g ae/ha) was 73.3%. The “Percent (%) Visual Control POLCO” value ([14]; 10 g ae/ha) was 97.5%, the “Percent (%) Visual Control POLCO” value ([14]; 20 g ae/ha) was 98.8% and the “Percent (%) Visual Control ANTAR” value ([15]; 10 g ae/ha) was 99.3%. For the same molecule, the “Percent (%) Visual Control ANTAR” value ([15]; 20 g ae/ha) was 99.3%, the “Percent (%) Visual Control PAPRH” value ([16]; 10 g ae/ha) was 85% and the “Percent (%) Visual Control PAPRH” value ([16]; 20 g ae/ha) was 100%. For the same molecule, the “Percent (%) Visual Control MATIN” value ([17]; 10 g ae/ha) was 100%, the “Percent (%) Visual Control MATIN” value ([17]; 20 g ae/ha) was 100% and the “Percent (%) Visual Control CHEAL” value ([18]; 10 g ae/ha) was 92.5%. For the same molecule, the “Percent (%) Visual Control CHEAL” value ([18]; 20 g ae/ha) was 95%.

Source: patent US11363816B2, “4-amino-6-(heterocyclic)picolinates and 6-amino-2-(heterocyclic)pyramidine-4-carboxylates and their use as herbicides” (Dow AgroSciences LLC, priority 2017, dated 2022)
